Assays:
OT-I CD8+ T cells [1] = experiment: Tcm differentiation of isolated OT-I CD8+ T cells activated with α-CD3/α-CD28 in the absence of dendritic cells; format: cell-based, mice; conditions: α-CD3/α-CD28 activation; 3-methylhistidine 3 mM, DHB 100 μM; day 7
Method: (§1) FIG. 2: a) OT-I CD8+ T cells were cultured with different metabolites in vitro as indicated, b,c) shown is the frequency of CD44^+CD62L^+ Tcm CD8+ T cells on day 8. d) OT-I CD8+ T cells were activated with α-CD3/α-CD28 antibodies in presence of metabolites as indicated and shown is the Tcm CD8+ T cells on day 7. Data represent the mean±s.e.m. (n=5).
(§2) Splenocytes from OT-I mice were obtained aseptically. The cells were cultured in 96-well plates (1×10^5 cells per well). For Tcm differentiation study, cells were activated with SIINFEKL peptide (4×10^−9M) in the presence of various metabolites (arginine: 3 mM; 3-methylhistidine: 3 mM; N-acetylneuraminate: 100 μM; disodium sebacate: 100 μM; DHB: 100 μM; pantothenate: 100 μM; γ-aminobutyric acid: 100 μM; glycerol: 100 μM; AICAR: 100 μM, sodium ferulate: 100 μM) for 3 days. Then cells were washed three times with T-cell medium and further cultured with IL-2 (10 ng ml^−1; PeproTech) in the presence of metabolites for 5 days. The cells were then washed twice and re-activated with SIINFEKL peptide (10 μM) for 2 h. The suspension cells were collected, blocked with CD16/32 antibody and stained with the fixable viability dye eFluor 450, FITC-CD44 rat anti-human/mouse and PE-CD62L monoclonal antibody. […] Tcf1^+CD8^+, CD44^+CD62L^+CD8^+ and survival (stained with Annexin V-APC and PI) T cells were detected via flow cytometry.

OT-I CD8+ T cells [2] = experiment: Tcf1+CD8+ differentiation of OT-I T cells with metabolites; format: cell-based, mice; conditions: day 6
Method: FIG. 3: a) OT-I CD8+ T cells were cultured with different metabolites in vitro as indicated, b,c) shown are the frequency of the Tcf1^+CD8+ T cells and the representative flow cytometry plots on day 6. Data represent the mean±s.e.m. (n=5).
as §2, with “antibody. To test if the central memory CD8+ T cells differentiation is dependent on dendritic cells, CD8 T cells isolated from the spleen in OT-I mice were incubated in the 96-well plate, which was precoated with anti-hamster IgG antibody. […] (1 μg mL^−1) and IL-2 (100 U mL^−1) were added into each well in the presence of 3-methylhistidine (3 mM), DHB (100 μM), or sodium ferulate (100 μM) for 2 days. Then cells were washed for three times to remove α-CD3/α-CD28 antibodies and further incubated with metabolites and IL-2 (10 ng ml^−1) for 5 days. Thereafter, cells were collected for central memory CD8^+ T cells analysis. For CD8^+ T cells survival study, cells were activated with antigen peptide as above, following with thoroughly washing, and incubation in presence of IL-2 for 2 days.” for “antibody.”

[3] = system: CT26 colon carcinoma cells; experiment: CT26 tumor model, metabolite monotherapy i.p. without α-PD-1; format: in vivo, BALB/c mice; conditions: monotherapy without α-PD-1 IgG; i.p. DHB 2.4 mg or 3-methylhistidine 3 mg per dose
Method: FIG. 7: a-d) In vitro cell viability of DHB at various concentrations in activated T cells, MC38, B16F10, and CT26 tumor cells. e) BALB/c mice were s.c. inoculated with 1.5×10^5 CT26 colon carcinoma cells. DHB (2.4 mg per dose) or 3-methylhistidine (3 mg per dose) was i.p. injected 3 times every 4 days, 100 μg α-PD-1 was i.p. injected on days 11, 15, and 20. Shown is the average tumor growth. Data represent the mean±s.e.m. (n=4-5).

OT-I CD8+ T cells [4] = experiment: In vitro central memory (Tcm) differentiation of OT-I CD8+ T cells activated with SIINFEKL peptide and IL-2 with metabolites; format: cell-based, mice; conditions: day 8; metabolite-supplemented medium (arginine 3 mM, 3-methylhistidine 3 mM, DHB 100 μM, sodium ferulate 100 μM)
Method: as §1
(§3) Splenocytes from OT-I mice were obtained aseptically. The cells were cultured in 96-well plates (1×10^5 cells per well). For Tcm differentiation study, cells were activated with SIINFEKL peptide (4×10^−9M) in the presence of various metabolites (arginine: 3 mM; 3-methylhistidine: 3 mM; N-acetylneuraminate: 100 μM; disodium sebacate: 100 μM; DHB: 100 μM; pantothenate: 100 μM; γ-aminobutyric acid: 100 μM; glycerol: 100 μM; AICAR: 100 μM, sodium ferulate: 100 μM) for 3 days. Then cells were washed three times with T-cell medium and further cultured with IL-2 (10 ng ml^−1; PeproTech) in the presence of metabolites for 5 days. The cells were then washed twice and re-activated with SIINFEKL peptide (10 μM) for 2 h. The suspension cells were collected, blocked with CD16/32 antibody and stained with the fixable viability dye eFluor 450, FITC-CD44 rat anti-human/mouse and PE-CD62L monoclonal antibody. To test if the central memory CD8+ T cells differentiation is dependent on dendritic cells, CD8 T cells isolated from the spleen in OT-I mice were incubated in the 96-well plate, which was precoated with anti-hamster IgG antibody. […] (1 μg mL^−1) and IL-2 (100 U mL^−1) were added into each well in the presence of 3-methylhistidine (3 mM), DHB (100 μM), or sodium ferulate (100 μM) for 2 days. Then cells were washed for three times to remove α-CD3/α-CD28 antibodies and further incubated with metabolites and IL-2 (10 ng ml^−1) for 5 days. Thereafter, cells were collected for central memory CD8^+ T cells analysis. For CD8^+ T cells survival study, cells were activated with antigen peptide as above, following with thoroughly washing, and incubation in presence of IL-2 for 2 days. Metabolites were added during this incubation (arginine: 3 mM, 1 mM; 3-methylhistidine: 3 mM, 1 mM, 500 μM, 100 μM; N-acetylneuraminate: 100 μM; disodium sebacate: 100 μM; DHB: 100 μM, 50 μM, 20 μM; pantothenate: 100 μM; γ-aminobutyric acid: 100 μM; glycerol: 100 μM; AICAR: 100 μM). Then cells were further incubated in absence of both IL-2 and metabolites for 36 h to induce the apoptosis/dead. For Tcf1^+CD8^+ differentiation study, cells were activated with antigen peptide as above, followed by thoroughly washing, and incubation with metabolites in presence of IL-2 for 3 days. […] Tcf1^+CD8^+, CD44^+CD62L^+CD8^+ and survival (stained with Annexin V-APC and PI) T cells were detected via flow cytometry.

[5] = system: CT26 colon carcinoma cells; experiment: CT26 tumor model, intratumoral metabolites plus α-PD-1; format: in vivo, BALB/c mice
Method: FIG. 5: a) Therapeutic treatment regimen. BALB/c mice were s.c. inoculated with 1.5×10^5 CT26 colon carcinoma cells. The candidate metabolites were injected intratumorally every other day, 100 μg α-PD-1 was i.p. injected on days 9, 12, 16 and 20. b) Average tumor growth, c) individual tumor growth, and d) overall Kaplan-Meier survival are shown. Data represent the mean±s.e.m. (n=5).
(§4) Animals were cared for following the federal, state and local guidelines. All work conducted on animals was in accordance with and approved by the Institutional Animal Care and Use Committee (IACUC). Female (6-8 weeks old) BALB/c mice from Jackson Laboratory were inoculated with 1.5×10^5 CT26 cells per mouse on the right flank by s.c. injection. Tumor-bearing mice were randomly assigned to different treatment groups. For intratumoral injection study, the mice were injected with 3-methylhistidine (dose: 1 mg per mouse), sodium hippurate (dose: 1 mg per mouse), disodium sebacate (dose: 1 mg per mouse), sodium ferulate (dose: 1 mg per mouse), or DHB (dose: 0.5 mg per mouse) in 40 μL PBS buffer for every other day. The mice were i.p. injected with α-PD-1 antibody (100 μg per dose; clone RMP1-14, Bioxcell) on days 9, 12, 16 and 20 post tumor inoculation. For oral administration study, the mice were injected with 3-methylhistidine (dose: 3 mg per mouse), sodium hippurate (dose: 3 mg per mouse), disodium sebacate (dose: 3 mg per mouse), sodium ferulate (dose: 3 mg per mouse), or DHB (dose: 2.4 mg per mouse) in PBS buffer for 3 times every 4 days. α-PD-1 was injected on days 10, 14, 18 and 22. The tumor size was measured, and the tumor volume was calculated as ½×(length×width^2). Tumor-bearing mice were euthanized when the tumor size reached 1.5 cm in any diameter or when the animals became moribund with severe weight loss (>20%) or tumor ulceration.

OT-I CD8+ T cells [6] = experiment: CD8+ T cell survival upon IL-2 withdrawal (Annexin V/PI); format: cell-based, mice; conditions: dependent on the dose of metabolites
Method: FIG. 4: a) OT-I CD8+ T cells were cultured with different metabolites in vitro as indicated, b,c) shown are the level of survival CD8+ T cells (Annexin V^−PI^−) as well as the representative flow cytometry plots on day 5.5. Data represent the mean±s.e.m. (n=5).
as §3, with “days.” for “days. Metabolites were added during this incubation (arginine: 3 mM, 1 mM; 3-methylhistidine: 3 mM, 1 mM, 500 μM, 100 μM; N-acetylneuraminate: 100 μM; disodium sebacate: 100 μM; DHB: 100 μM, 50 μM, 20 μM; pantothenate: 100 μM; γ-aminobutyric acid: 100 μM; glycerol: 100 μM; AICAR: 100 μM). Then cells were further incubated in absence of both IL-2 and metabolites for 36 h to induce the apoptosis/dead. For Tcf1^+CD8^+ differentiation study, cells were activated with antigen peptide as above, followed by thoroughly washing, and incubation with metabolites in presence of IL-2 for 3 days.”

[7] = system: CT26 colon carcinoma cells; experiment: CT26 tumor model, orally administered metabolites plus α-PD-1; format: in vivo, BALB/c mice; conditions: oral gavage 3 times every 4 days (DHB 2.4 mg, 3-methylhistidine 3 mg per mouse) plus α-PD-1 i.p.
Method: FIG. 6: a) Therapeutic treatment regimen. BALB/c mice were s.c. inoculated with 1.5×10^5 CT26 colon carcinoma cells. The candidate agents were orally administrated 3 times every 4 days, 100 μg α-PD-1 was injected i.p. on days 10, 14, 18 and 22. b) Average tumor growth, c) individual tumor growth. Data represent the mean±s.e.m. (n=4-5).
as §4, with “For oral administration study, the mice were injected with 3-methylhistidine (dose: 3 mg per mouse), sodium hippurate (dose: 3 mg per mouse), disodium sebacate (dose: 3 mg per mouse), sodium ferulate (dose: 3 mg per mouse), or DHB (dose: 2.4 mg per mouse) in PBS buffer for 3 times every 4 days. α-PD-1 was injected on days 10, 14, 18 and 22.” left out, “Tumor-bearing mice were euthanized when the tumor size reached 1.5 cm in any diameter or when the animals became moribund with severe weight loss (>20%) or tumor ulceration.” left out

cancer cells = conditions: reported in literature (Eroglu et al.); cited from earlier work
tumor = conditions: reported in literature (Geiger et al.); cited from earlier work
[8] = Encapsulation of DHB-based prodrugs in lipid-based formulation; format: physicochemical; conditions: oleic acid, Tween 80, PBS emulsion
Method: The DHB-based prodrugs were synthesized by the Medicinal Chemistry Core in University of Michigan. To prepare the formulation, the prodrug #201 or #905 (4 mg) was added to the mixture of oleic acid (45 μL) and Tween 80 (25 μL) and incubated overnight to equilibrate and allow the prodrug to dissolve. Then an aqueous phase consisting of PBS buffer was added, and the formulation emulsified by ultrasonication with an ultrasonic processor.

[9] = system: CT26 colon carcinoma cells; experiment: CT26 tumor model, oral prodrug-based lipid formulation plus α-PD-1; format: in vivo, BALB/c mice
Method: FIG. 9: a) Scheme showing the preparation of formulation encapsulating DHB prodrug. b) Therapeutic treatment regimen. BALB/c mice were s.c. inoculated with 1.5×10^5 CT26 colon carcinoma cells. The prodrug #201 (0.5 mg per dose) or #905 (1 mg per dose) were orally administrated every other day, respectively. 100 μg α-PD-1 was injected i.p. on days 11, 15, and 19. Shown are the (c) average tumor growth; AH1-specific CD8+ T cells in PBMCs on days (d) 18 and (e) 24. Tumor microenvironment analysis: (f) immune cells (CD45^+ cells) infiltration, (g) CD8^+ T cells, (h) CD44^+CD62L^+ central memory CD8+ T cells, and (i) AH1-specific CD8^+ T cells in tumor tissue on day 25. Data represent the mean±s.e.m. (n=5).
The CT26 tumor model was established as above. The formulation containing prodrug #201 or #905 was orally administered starting on day 8 and performed every other day. α-PD-1 antibody (100 μg per dose) was i.p. injected on days 11, 15, and 19. The PBMCs were obtained on days 18 and 24 and stained with PE-tagged peptide-MHC tetramer (H-2L^d-restricted SPSYVYHQF). Mice were euthanized on day 25 and tumor tissues were cut into small pieces and incubated with collagenase type IV (1 mg ml-1) and DNase I (0.1 mg ml-1) under gentle shaking. After 30 min, the cell suspension was filtered through a 70-μm strainer. The cells were washed with fluorescence-activated cell sorting (FACS) buffer and blocked with CD16/32 antibody. The cells were then stained with the designated antibodies: efluor450, FITC-CD44 rat anti-human/mouse, PE-CD62L monoclonal antibody, and APC-CD8 rat anti-mouse, PE-Tcf1/Tcf7 rabbit monoclonal antibody, APC-efluor780-Cd45 Rat anti Mouse (Clone: 30 F11), PE-AH1-specific tetramer. Cells were analyzed by flow cytometry.

Compound: Cn1cncc1C[C@H](N)C(=O)O [3-methylhistidine]
- induction of central memory CD8+ T cells in the absence of dendritic cells (OT-I CD8+ T cells [1]): can also induce central memory CD8^+ T cells
- frequency of Tcf1+CD8+ T cells (OT-I CD8+ T cells [2]): increased the frequency
- tumor growth in vivo [3]: did not inhibit the tumor growth
- differentiation of CD44+CD62L+ central memory CD8+ T cells (OT-I CD8+ T cells [4]): significantly increased the differentiation
- systemic antitumor efficacy of α-PD-1 treatment and CT26 tumor growth ([5]; intratumoral every other day (DHB 0.5 mg, 3-methylhistidine 1 mg per mouse) plus α-PD-1 i.p.): improved the systemic antitumor efficacy of α-PD-1 treatment and slowed down the CT26 tumors growth
- tumor-free mice on day 70 ([5]; intratumoral metabolite plus α-PD-1 i.p.): 80%
- survival of activated CD8+ T cells (OT-I CD8+ T cells [6]): significantly increased the survival
- efficacy of α-PD-1 treatment [7]: improved the efficacy of α-PD-1 treatment

Compound: COc1cc(/C=C/C(=O)O)ccc1O [Ferulic acid]
- apoptosis in cancer cells (cancer cells): can induce apoptosis

Compound: N=C(N)NCCC[C@H](N)C(=O)O [L-arginine]
- antitumor effect in vivo (tumor): improve the antitumor effect in vivo
- differentiation of CD44+CD62L+ central memory CD8+ T cells (OT-I CD8+ T cells [4]): significantly increased the differentiation
- survival of activated CD8+ T cells (OT-I CD8+ T cells [6]): significantly increased the survival

Compound: CCOC(=O)c1ccc(OC(=O)C(C)(C)C)c(OC(=O)C(C)(C)C)c1 [Prodrug #201, 4-(ethoxycarbonyl)-1,2-phenylene bis(2,2-dimethylpropanoate)]
- encapsulation in lipid-based dose forms [8]: can be successfully encapsulated
- infiltration of immune cells (CD45+ cells), AH1-specific CD8+ T cells and CD44+CD62L+ central memory CD8+ T cells in tumor tissue ([9]; oral formulation plus α-PD-1, day 25): promoted the infiltration
- frequency of AH1-specific CD8+ T cells among PBMCs ([9]; oral formulation plus α-PD-1, days 18 and 24): increased the frequency
- tumor growth ([9]; orally administered lipid formulation, 0.5 mg per dose every other day, plus α-PD-1): substantially slowed down the tumor growth
